Molecules are shown by their SMILES. In brackets after ≈: the same amount, converted by molar mass. Read-outs that look alike come from different tables or passages of the source.

Type in all cases: cell-based
Data set [1] has as its system P. falciparum CQ-resistant (CQ-R) W2 strain. The data set is described as follows: antiplasmodial drug susceptibility assay (pLDH), CQ-resistant strain. Particulars: Plasmodium falciparum; P. falciparum W2, 72 h, pLDH; mean value with standard deviation; read-out: IC50 W2 (CQ-R). Here is the method: (§1) P. falciparum cultures were carried out according to Trager and Jensen with slight modifications. The CQ-sensitive strain D10 and the CQ-resistant strain W2 were maintained at 5% hematocrit (human A-positive erythrocytes) in RPMI 1640 medium (EuroClone S.p.A, Milan, Italy) with the addition of 1% AlbuMax (Invitrogen, San Diego, California, USA), 0.01% hypoxanthine, 20 mM Hepes, and 2 mM glutamine at 37 °C in a standard gas mixture (1% O2, 5% CO2, and 94% N2). […] Drugs were placed in 96-well flat-bottomed microplates, and serial dilutions were made. Asynchronous cultures with parasitaemia of 1–1.5% and 1% final hematocrit were aliquoted into the plates and incubated for 72 h at 37 °C. Parasite growth was determined spectrophotometrically (OD650nm) by measuring the activity of the parasite lactate dehydrogenase (pLDH), as described in a modified version of Makler’s method in control- and drug-treated cultures. The antiplasmodial activity is expressed as 50% inhibitory concentrations (IC50); each IC50 value is the mean ± standard deviation of at least three separate experiments performed in duplicate.

The subject of a further data set is C. albicans ATCC 10231. The data set is described as follows: broth microdilution antifungal assay (MIC). The note with it: Candida albicans, ATCC10231, 24 h, range 100–0.19 µM. Here is the method: The reference strain of Candida albicans (ATCC 10231) was used in the present study and maintained on Sabouraud Dextrose Agar (Biolife Italiana S.r.l., Milan, Italy) before the antifungal assays.
(§2) The minimum inhibitory concentrations (MICs) were determined using the microbroth dilution method in microtiter plates according to the Clinical and Laboratory Standards Institute (CLSI) guidelines. In short, microbial inocula were prepared at 0.5 McFarland in PBS and, subsequently, bacterial suspensions were diluted 1:200 in Mueller–Hinton broth (Sigma-Aldrich, St. Louis, MO, USA), while fungal inoculum was diluted 1:20 in RPMI-1640 medium (Gibco®, ThermoFisher Scientific Inc., Waltham, MA, USA), containing glucose 2%, 0.3% levo-glutamine buffered to pH 7.0 with 0.165 M 3-(N-morpholino)propanesulfonic acid (MOPS). A total of 100 µL of these microbial suspensions was introduced into a 96-well microplate and incubated with 100 µL of the compounds, two-fold serially diluted in the range of 100–0.19 µM. Positive controls (microbial suspensions in regular media), negative controls (only compounds), solvent controls (microbial suspensions incubated with DMSO dilutions), and the reference drug controls were included in the tests. The plate was incubated at 37 °C for 24 h, and subsequently the optical density at 630 nm (OD630nm) was spectrophotometrically measured. Experiments were performed in triplicate with three biological replicates. In addition to MIC, IC50 values were measured for the active compounds. The values, corresponding to the concentration of the compound giving rise to an inhibition of growth of 50%, were obtained by interpolation on dose–response curves generated by plotting the percentages of growth inhibition, relative to the positive control (set to 100% of growth), as a function of the tested concentrations (on a logarithm scale). Statistical analysis was carried out by using GraphPad Prism version 9.4.1 for Windows (GraphPad Software, San Diego, CA, USA, www.graphpad.com).

In another data set the test system is E. coli ATCC 25923. Put plainly: broth microdilution antimicrobial assay (MIC). Particulars: Escherichia coli, ATCC25923, 24 h, range 100–0.19 µM. (In broth dilution the organism is exposed to a series of concentrations in liquid medium.)
Data set [2] relates to clinical isolates of methicillin-resistant S. aureus (MRSA). The data set is described as follows: broth microdilution IC50 on MRSA clinical isolates. The note with it: Staphylococcus aureus; five MRSA clinical isolates, range of IC50; read-out: IC50 ranges, MRSA (n = 5).
From the text: (§3) Reference bacterial strains of Staphylococcus aureus (ATCC 25923) and Escherichia coli (ATCC 25922) were used in this study as Gram-positive and negative models, respectively. These reference strains were purchased from the American Type Culture Collection (ATCC, Manassas, VA, USA). Clinical isolates, identified by MALDI-TOF MS (Bruker Daltonik, GmbH, Bremen, Germany), were profiled for their antibiotic susceptibility by using the Vitek2 semiautomated system (bioMérieux, Craponne, France) and according to EUCAST (Version 12, 2022, http://www.eucast.org (accessed on 1 January 2022)). The bacterial cultures were routinely grown on 5% blood agar plates (Biolife Italiana S.r.l., Milan, Italy) and were freshly used in the antibacterial assays.
as §2

Data set [3] deals with P. falciparum CQ-sensitive (CQ-S) D10 strain. The data set is described as follows: antiplasmodial drug susceptibility assay (pLDH), CQ-sensitive strain. The note with it: Plasmodium falciparum; P. falciparum D10, 72 h, pLDH; mean value with standard deviation; read-out: IC50 D10 (CQ-S). Here is the method:
as §1

For the next data set, the system named is S. aureus ATCC 25923. Put plainly: broth microdilution antimicrobial assay (MIC, IC50). Particulars: Staphylococcus aureus, ATCC25923; for MIC: broth microdilution, 24 h, range 100–0.19 µM.
From the text: as §3, §2

Data set [4] in a line: cell viability and proliferation assay (CCK-8/WST8). Particulars: human, WS1 cells (human-derived fibroblasts, ATCC CRL-1502), mean value with standard deviation. Here is the method: WS1 cells (ATCC CRL-1502) were selected as a model system to investigate the effect of PTZ-quinoline hybrid compounds on human-derived fibroblasts. Briefly, cells were cultured in DMEM-High glucose supplemented with 10% fetal bovine serum (FBS) (Carlo Erba Reagents, Milan, Italy), 100 U/mL penicillin, and 100 µg/mL streptomycin at 37 °C with 5% CO2. For experiments, cells were seeded into 96-well plates at 0.7 × 10^4 cells/well, and incubated at 37 °C for 24 h. […] Cell viability was assessed by a WST8-based assay according to the manufacturer’s instructions (CCK-8, Cell Counting Kit-8, Dojindo Molecular Technologies, Rockville, MD, USA). After 48 h of incubation, culture medium was removed from each well, the monolayer was washed with PBS, and 100 µL of fresh medium containing 10 µL of CCK-8 solution was added. Following a 2 h incubation at 37 °C, the OD450nm was read, and data were expressed as the percentage of cell viability relative to the untreated controls. The CC50 was obtained on the corresponding dose–response curves generated as previously reported for IC50 values. Experiments were carried out in triplicate in three biological replicates.
(In general: Tetrazolium assays rely on reduction of a dye to a coloured formazan, in cell work by metabolically active cells.)

Setting [5] is: S. aureus ATCC 25923, 24 h, OD630, mean value with standard deviation, read-out: IC50 ATCC 25923.
The mark [6] stands for this setting: reference strain, range of IC50, read-out: IC50 ranges, ATCC 25923.

As to `Clc1ccc2c(NCCCn3cc(CN4c5ccccc5Sc5ccccc54)nn3)ccnc2c1` [Compound 5a, N-(3-(4-((10H-phenothiazin-10-yl)methyl)-1H-1,2,3-triazol-1-yl)propyl)-7-chloroquinolin-4-amine], the concentration for half-maximal inhibition (IC50) – broadly, the concentration at which inhibition is half-maximal – in data set [1] was 0.174 ± 0.025 µM; in data set [2] it was 6.4 to 9.63 µM; in data set [3], 0.292 ± 0.078 µM; with S. aureus ATCC 25923 (setting [5]), 6.73 ± 1.32 µM; in the data set with S. aureus ATCC 25923 (setting [6]), 5.41 to 8.05 µM. The MIC (commonly the least concentration at which growth counts as inhibited) against C. albicans ATCC 10231 is greater than 100 µM; against E. coli ATCC 25923 it was greater than 100 µM; against S. aureus ATCC 25923 it was 12.5 µM (≈ 6.24 µg/mL). Further, the CC50 – broadly, the concentration at which the toxic effect on the cells reaches its halfway point – at 48 h in data set [4] was 11.8 ± 0.14 µM.
Take `Clc1ccc2c(NCCCCCn3cc(CN4c5ccccc5Sc5ccccc54)nn3)ccnc2c1` [Compound 6a, N-(5-(4-((10H-phenothiazin-10-yl)methyl)-1H-1,2,3-triazol-1-yl)pentyl)-7-chloroquinolin-4-amine]: the IC50 amounted to 0.377 ± 0.066 µM in data set [1] and 0.326 ± 0.12 µM in data set [3]. The MIC against C. albicans ATCC 10231, with E. coli ATCC 25923 and against S. aureus ATCC 25923 was greater than 100 µM each time. Moreover, in data set [4], half-maximal cytotoxicity (CC50 at 48 h) was put at 48.3 ± 0.9 µM.
Turning to `Clc1ccc2c(NCCn3cc(CN4c5ccccc5Sc5ccccc54)nn3)ccnc2c1` [Compound 4a, N-(2-(4-((10H-phenothiazin-10-yl)methyl)-1H-1,2,3-triazol-1-yl)ethyl)-7-chloroquinolin-4-amine], the IC50 is 0.2 ± 0.03 µM in data set [1]; 7.75 to 8.98 µM in data set [2]; 0.142 ± 0.02 µM in data set [3]; 7.49 ± 0.15 µM in the data set with S. aureus ATCC 25923 (setting [5]); 7.34 to 7.64 µM in the data set on S. aureus ATCC 25923 (setting [6]). Further, the figures for the MIC in the data set on C. albicans ATCC 10231, against E. coli ATCC 25923 and in the data set on S. aureus ATCC 25923 were greater than 100 µM, greater than 100 µM and 12.5 µM (≈ 6.06 µg/mL), respectively. Besides, in data set [4], half-maximal cytotoxicity (CC50 at 48 h) was put at 17.9 ± 3.23 µM.
Regarding `Clc1ccc2c(c1)N(Cc1cn(CCCCCNc3ccnc4cc(Cl)ccc34)nn1)c1ccccc1S2` [Compound 6b, 7-chloro-N-(5-(4-((2-chloro-10H-phenothiazin-10-yl)methyl)-1H-1,2,3-triazol-1-yl)pentyl)quinolin-4-amine], the IC50 in data set [1] turned out to be 0.184 ± 0.093 µM; in data set [3], 0.602 ± 0.314 µM; in the data set on S. aureus ATCC 25923 (setting [5]), 25.1 ± 1.76 µM. Also, the MIC with C. albicans ATCC 10231 is greater than 100 µM; in the data set on E. coli ATCC 25923 it was greater than 100 µM; against S. aureus ATCC 25923, 50 µM (≈ 28.1 µg/mL). The same compound yielded a CC50 at 48 h in data set [4] of 34.3 ± 0.52 µM.
Consider `Clc1ccc2c(c1)N(Cc1cn(CCNc3ccnc4cc(Cl)ccc34)nn1)c1ccccc1S2` [Compound 4b, 7-chloro-N-(2-(4-((2-chloro-10H-phenothiazin-10-yl)methyl)-1H-1,2,3-triazol-1-yl)ethyl)quinolin-4-amine], for which the IC50 is 0.154 ± 0.002 µM in data set [1]; 4.42 to 6.48 µM in data set [2]; 0.156 ± 0.018 µM in data set [3]; 4.86 ± 0.89 µM in the data set on S. aureus ATCC 25923 (setting [5]); 3.97 to 5.75 µM in the data set on S. aureus ATCC 25923 (setting [6]). For the same compound, the MIC in the data set on C. albicans ATCC 10231 was greater than 100 µM; in the data set on E. coli ATCC 25923, greater than 100 µM; in the data set with S. aureus ATCC 25923, 6.25 to 12.5 µM (≈ 3.25 to 6.49 µg/mL). The compound also displayed a CC50 at 48 h in data set [4] of 12.7 ± 3.51 µM.
Consider `Clc1ccc2c(N3CCN(CCCCCN4c5ccccc5Sc5ccccc54)CC3)ccnc2c1` [Compound 3, 10-(5-(4-(7-chloroquinolin-4-yl)piperazin-1-yl)pentyl)-10H-phenothiazine], for which the IC50 in data set [1] was found to be 0.99 ± 0.245 µM; in data set [3], 2.34 ± 0.012 µM. Also, the minimal inhibitory concentration (MIC) against C. albicans ATCC 10231, in the data set on E. coli ATCC 25923 and in the data set with S. aureus ATCC 25923 was greater than 100 µM in each case. This compound gave a CC50 at 48 h in data set [4] greater than 100 µM.
On to `Clc1ccc2c(N3CCN(CCCN4c5ccccc5Sc5ccccc54)CC3)ccnc2c1` [Compound 1, 10-(3-(4-(7-chloroquinolin-4-yl)piperazin-1-yl)propyl)-10H-phenothiazine], for which the IC50 was found to be 2.32 ± 1.05 µM in data set [1] and 2.52 ± 0.84 µM in data set [3]. The MIC against C. albicans ATCC 10231, in the data set with E. coli ATCC 25923 and against S. aureus ATCC 25923 was greater than 100 µM throughout. This compound also registered a CC50 at 48 h in data set [4] greater than 100 µM.
On to `Clc1ccc2c(c1)N(Cc1cn(CCCNc3ccnc4cc(Cl)ccc34)nn1)c1ccccc1S2` [Compound 5b, 7-chloro-N-(3-(4-((2-chloro-10H-phenothiazin-10-yl)methyl)-1H-1,2,3-triazol-1-yl)propyl)quinolin-4-amine], for which the IC50 in data set [1] is 0.135 ± 0.017 µM; in data set [2], 6.18 to 10.3 µM; in data set [3], 0.146 ± 0.006 µM; with S. aureus ATCC 25923 (setting [5]), 5.03 ± 1.72 µM; with S. aureus ATCC 25923 (setting [6]) it was 3.31 to 6.75 µM. Further, the minimal inhibitory concentration (MIC) in the data set with C. albicans ATCC 10231 is greater than 100 µM; against E. coli ATCC 25923 it was greater than 100 µM; against S. aureus ATCC 25923 it was 6.25 to 12.5 µM (≈ 3.33 to 6.67 µg/mL). In data set [4], the half-maximal cytotoxic concentration (CC50) at 48 h stood at 22.1 ± 0.66 µM.
